The results in this text go back to patent US8877719B2, “Pest controlling composition” (Sumitomo Chemical Company, Limited, priority 2009, dated 2014).

What all share (assay type): in vivo
Assay [1] deals with Tetranychus urticae female adult insects. Nature of the assay: Test Example 3: kidney bean leaf piece spray test, insecticidal ratio on Tetranychus urticae female adults. The conditions noted are these: sprayed on kidney bean leaf pieces, three days after. How it is done:
(§1) A flowable formulation containing 11.7 wt % of spinetoram (spinetoram J:spinetoram L=75:25 (weight ratio)) was diluted with water containing 0.02 vol % of a spreading agent (trade name: Sindain, manufactured by Sumitomo Chemical Co., Ltd.) so as to obtain a given concentration.
(§2) A flowable formulation containing 22.4 wt % of spirotetramat (trade name: Movento, manufactured by Bayer CropScience) was diluted with water containing 0.02 vol % of a spreading agent (trade name: Sindain, manufactured by Sumitomo Chemical Co., Ltd.) so as to obtain a given concentration.
(§3) A flowable formulation containing 22.9 wt % of spiromesifen (trade name: CLEAZAR, manufactured by Bayer CropScience) was diluted with water containing 0.02 vol % of a spreading agent (trade name: Sindain, manufactured by Sumitomo Chemical Co., Ltd.) so as to obtain a given concentration.
These water-diluted solutions were mixed to prepare a test drug solution.
A kidney bean leaf piece having a diameter of about 2 cm was inoculated with 10 Tetranychus urticae female adult insects. Then, the test drug solution was sprayed in an amount of 0.3 ml per two pieces of the kidney bean leaves. Three days after, life-or-death of the female adult insects was observed. From the observed results, the insecticidal ratio was calculated in the same manner as in Test Example 1. The test was repeated three times.

Assay [2] concerns Spodoptera litura third-instar larvae. The experiment in a line: Test Example 2: cabbage leaf immersion test, insecticidal ratio on Spodoptera litura third-instar larvae (spinetoram / spiromesifen). The note with it: cabbage leaf immersed 60 seconds, four days after. How it is done:
as §1, §3
The spinetoram water-diluted solution and spiromesifen water-diluted solution were mixed to prepare a test drug solution.
(§4) Cabbage was planted in a pot having a capacity of 860 ml and allowed to grow to 4-leaves stage. Leaves of the cabbage were cut one by one. One of the cabbage leaves was immersed in a test drug solution for 60 seconds. The cabbage leaf was air-dried, then, the cabbage leaf was placed in a cup having a capacity of 500 ml containing filter paper laid therein. Ten Spodoptera litura third-instar larvae were released in this cup. Four days after, life-or-death of the tested insects was observed. From the observed results, the insecticidal ratio was calculated in the same manner as in Test Example 1. The test was repeated three times.

The test system is the same in assay [3]. Nature of the assay: Test Example 1: cabbage leaf immersion test, insecticidal ratio on Spodoptera litura third-instar larvae (spinetoram / spirotetramat). The conditions noted are these: cabbage leaf immersed 60 seconds, four days after. The method, then:
as §1, §2
The spinetoram water-diluted solution and spirotetramat water-diluted solution were mixed to prepare a test drug solution.
as §4, with “The results were corrected by” for “From”, “following formula, thereby calculating” for “observed results, the”, “ratio.” for “ratio was calculated in the same manner as in Test Example 1.”, “times. Insecticidal ratio (%)=100×(Mt−Mc)/(100−Mc)” for “times.”
Mt: insect death ratio (%) in test compound-treated area
Mc: insect death ratio (%) in test compound-non-treated area

Consider `Cc1cc(C)c(C2=C(OC(=O)CC(C)(C)C)C3(CCCC3)OC2=O)c(C)c1` [spiromesifen, 2-oxo-3-(2,4,6-trimethylphenyl)-1-oxaspiro[4,4]nona-3-en-4-yl 3,3-dimethylbutanoate], for which the “Insecticidal ratio (%)” value in assay [1] (3.2 ppm) was found to be 28.0%; in assay [2] (112 ppm), 3.4%.
As to `CCOC(=O)OC1=C(c2cc(C)ccc2C)C(=O)N[C@]12CC[C@@H](OC)CC2` [spirotetramat, cis-4-(ethoxycarbonyloxy)-8-methoxy-3-(2,5-xylyl)-1-azaspiro[4,5]dec-3-en-2-one], the “Insecticidal ratio (%)” value in assay [3] (56 ppm) was found to be 10.3%; in assay [3] (112 ppm), 20.7%; in assay [1] (0.8 ppm), 0%.
Take spinetoram: the “Insecticidal ratio (%)” value is 17.2% in assay [3] (0.73 ppm), 28.4% in assay [1] (12.5 ppm) and 6.9% in assay [2] (0.73 ppm).
